Columns and labels:
[1] = system: antibodies in sera from SARS patients (sera 1a, 1b, 2, 6, 37, 62, London, SARS-yellow, SARS-green); format: binding, human; design: Binding of serum 6 to linear peptides of protein X1 of SARS-CoV Urbani / Binding of serum 37 to linear peptides of protein X1 of SARS-CoV Urbani / Binding of serum 6 to looped/cyclic peptide (PEPSCAN-ELISA) / Binding of serum 37 to looped/cyclic peptide (PEPSCAN-ELISA) / Binding of serum 37 to looped/cyclic peptides of protein X1 of SARS-CoV Urbani / Binding of serum 6 to linear peptides of protein X2 / Binding of serum 37 to linear peptides of protein X2 / Binding of serum 37 to looped/cyclic peptides of protein X2 of SARS-CoV Urbani / Binding of serum 6 to linear peptides of protein M of SARS-CoV Urbani / Binding of serum 37 to linear peptides of protein M of SARS-CoV Urbani / Binding of serum 6 to looped/cyclic peptides of protein M of SARS-CoV Urbani / Binding of serum 37 to looped/cyclic peptides of protein M of SARS-CoV Urbani / Binding of serum 6 to linear peptides of protein X3 of SARS-CoV Urbani / Binding of serum 37 to linear peptides of protein X3 of SARS-CoV Urbani / Binding of serum 37 to looped/cyclic peptides of protein X3 of SARS-CoV Urbani / Binding of serum 6 to linear peptides of protein X4 of SARS-CoV Urbani / Binding of serum 37 to linear peptides of protein X4 of SARS-CoV Urbani / Binding of serum 37 to looped/cyclic peptides of protein X4 of SARS-CoV Urbani / Binding of serum 6 to linear peptides of protein X5 of SARS-CoV Urbani / Binding of serum 37 to linear peptides of protein X5 of SARS-CoV Urbani / Binding of serum 37 to looped/cyclic peptides of protein X5 of SARS-CoV Urbani / Binding of serum 6 to linear peptides of protein N of SARS-CoV Urbani / Binding of serum 37 to linear peptides of protein N of SARS-CoV Urbani / Binding of serum 6 to linear peptide (PEPSCAN-ELISA) / Binding of serum 1a to looped/cyclic peptides of protein N of SARS-CoV Urbani / Binding of serum 1b to looped/cyclic peptides of protein N of SARS-CoV Urbani / Binding of serum 2 to looped/cyclic peptides of protein N of SARS-CoV Urbani / Binding of serum 6 to looped/cyclic peptides of protein N of SARS-CoV Urbani / Binding of serum 37 to looped/cyclic peptides of protein N of SARS-CoV Urbani / Binding of serum 62 to looped/cyclic peptides of protein N of SARS-CoV Urbani / Binding of serum London to looped/cyclic peptides of protein N of SARS-CoV Urbani / Binding of serum SARS-green to looped/cyclic peptides of protein N of SARS-CoV Urbani: unit not given here
[2] = system: control sera (pooled serum of ten healthy LUMC hospital workers; commercial negative donor pooled serum from the Dutch bloodbank); format: binding, human; design: Binding of Control serum LUMC to linear peptides / Binding of Control serum Blood-bank to linear peptides / Binding of Control serum LUMC to looped peptides / Binding of Control Serum Blood-Bank to Looped peptides / Binding of Control serum LUMC to linear peptides of the protein M of SARS-CoV Urbani / Binding of Control serum Blood-bank to linear peptides of the protein M of SARS-CoV Urbani / Binding of Control serum LUMC to looped peptides of the protein M of SARS-CoV Urbani / Binding of Control Serum Blood-Bank to Looped peptides of the protein M of SARS-CoV Urbani: unit not given here
[3] = system: rabbit serum obtained by immunizing a rabbit with the SARS-CoV strain Frankfurt 1; format: binding; design: Binding of a rabbit serum to linear peptides / Binding of a rabbit serum to looped peptides / Rabbit serum linear peptides / Rabbit serum looped peptides / Binding of a rabbit serum to linear peptides of protein N of SARS-CoV Urbani (Rabbit serum linear peptides) / Binding of a rabbit serum to looped/cyclic peptides of protein N of SARS-CoV Urbani (Rabbit serum looped peptides): unit not given here
[4] = system: recombinant human anti-SARS-CoV antibody 03-018; format: binding; design: Binding of antibody 03-018 to linear peptides of the N protein of SARS-CoV Urbani / Binding of antibody 03-018 to looped/cyclic peptides of the N protein of SARS-CoV Urbani: unit not given here

Sequence: GSQASSRSSSRSRGN
- Binding of serum 1a to linear peptide (PEPSCAN-ELISA) [1]: 0.3
- Binding of serum 1a to looped/cyclic peptides of protein N of SARS-CoV Urbani [1]: 0.4
- Binding of serum 1b to linear peptide (PEPSCAN-ELISA) [1]: 0.1
- Binding of serum 1b to looped/cyclic peptides of protein N of SARS-CoV Urbani [1]: 0.2
- Binding of serum 2 to linear peptide (PEPSCAN-ELISA) [1]: 0.4
- Binding of serum 2 to looped/cyclic peptides of protein N of SARS-CoV Urbani [1]: 0.4
- Binding of serum 6 to linear peptide (PEPSCAN-ELISA) [1]: 0.4
- Binding of serum 6 to looped/cyclic peptides of protein N of SARS-CoV Urbani [1]: 0.3
- Binding of serum 37 to linear peptide (PEPSCAN-ELISA) [1]: 0.7
- Binding of serum 37 to looped/cyclic peptides of protein N of SARS-CoV Urbani [1]: 0.7
- Binding of serum 62 to linear peptide (PEPSCAN-ELISA) [1]: 0.6
- Binding of serum 62 to looped/cyclic peptides of protein N of SARS-CoV Urbani [1]: 0.6
- Binding of serum London to linear peptide (PEPSCAN-ELISA) [1]: 0.6
- Binding of serum London to looped/cyclic peptides of protein N of SARS-CoV Urbani [1]: 0.5
- Binding of serum SARS-green to linear peptide (PEPSCAN-ELISA) [1]: 0.3
- Binding of serum SARS-green to looped/cyclic peptides of protein N of SARS-CoV Urbani [1]: 0.1
- Binding of serum SARS-yellow to linear peptide (PEPSCAN-ELISA) [1]: 0.7
- Binding of serum SARS-yellow to looped/cyclic peptides of protein N of SARS-CoV Urbani [1]: 0.5
- Binding of Control Serum Blood-Bank to Looped peptides [2]: 0.6
- Binding of Control serum Blood-bank to linear peptides [2]: 0.8
- Binding of Control serum LUMC to linear peptides [2]: 0.8
- Binding of Control serum LUMC to looped peptides [2]: 0.6
- Binding of a rabbit serum to linear peptides of protein N of SARS-CoV Urbani (Rabbit serum linear peptides) [3]: 0.2
- Binding of a rabbit serum to looped/cyclic peptides of protein N of SARS-CoV Urbani (Rabbit serum looped peptides) [3]: 0.7
- Binding of antibody 03-018 to linear peptides of the N protein of SARS-CoV Urbani [4]: 0.1
- Binding of antibody 03-018 to looped/cyclic peptides of the N protein of SARS-CoV Urbani [4]: 0.2

Sequence: PNNNAATVLQLPQGT
- Binding of serum 1a to linear peptides of protein N of SARS-CoV Urbani [1]: 0.2
- Binding of serum 1a to looped/cyclic peptides of protein N of SARS-CoV Urbani [1]: 0.5
- Binding of serum 1b to linear peptides of protein N of SARS-CoV Urbani [1]: 0.1
- Binding of serum 1b to looped/cyclic peptides of protein N of SARS-CoV Urbani [1]: 0.4
- Binding of serum 2 to linear peptides of protein N of SARS-CoV Urbani [1]: 0.2
- Binding of serum 2 to looped/cyclic peptides of protein N of SARS-CoV Urbani [1]: 0.8
- Binding of serum 6 to linear peptides of protein N of SARS-CoV Urbani [1]: 0.1
- Binding of serum 6 to looped/cyclic peptides of protein N of SARS-CoV Urbani [1]: 0.3
- Binding of serum 37 to linear peptides of protein N of SARS-CoV Urbani [1]: 0.6
- Binding of serum 37 to looped/cyclic peptides of protein N of SARS-CoV Urbani [1]: 1.0
- Binding of serum 62 to linear peptides of protein N of SARS-CoV Urbani [1]: 0.6
- Binding of serum 62 to looped/cyclic peptides of protein N of SARS-CoV Urbani [1]: 0.9
- Binding of serum London to linear peptides of protein N of SARS-CoV Urbani [1]: 0.5
- Binding of serum London to looped/cyclic peptides of protein N of SARS-CoV Urbani [1]: 0.7
- Binding of serum SARS-green to linear peptides of protein N of SARS-CoV Urbani [1]: 0.3
- Binding of serum SARS-green to looped/cyclic peptides of protein N of SARS-CoV Urbani [1]: 0.7
- Binding of serum SARS-yellow to linear peptides of protein N of SARS-CoV Urbani [1]: 0.7
- Binding of serum SARS-yellow to looped/cyclic peptides of protein N of SARS-CoV Urbani [1]: 0.5
- Binding of Control Serum Blood-Bank to Looped peptides [2]: 0.9
- Binding of Control serum Blood-bank to linear peptides [2]: 0.6
- Binding of Control serum LUMC to linear peptides [2]: 0.6
- Binding of Control serum LUMC to looped peptides [2]: 0.8
- Binding of a rabbit serum to linear peptides of protein N of SARS-CoV Urbani (Rabbit serum linear peptides) [3]: 0.0
- Binding of a rabbit serum to looped/cyclic peptides of protein N of SARS-CoV Urbani (Rabbit serum looped peptides) [3]: 0.2
- Binding of antibody 03-018 to linear peptides of the N protein of SARS-CoV Urbani [4]: 0.1
- Binding of antibody 03-018 to looped/cyclic peptides of the N protein of SARS-CoV Urbani [4]: 0.3

Sequence: LLLDRLNQLESKVSG
- Binding of serum 1a to linear peptide (PEPSCAN-ELISA) [1]: 0.3
- Binding of serum 1a to looped/cyclic peptides of protein N of SARS-CoV Urbani [1]: 0.3
- Binding of serum 1b to linear peptide (PEPSCAN-ELISA) [1]: 0.2
- Binding of serum 1b to looped/cyclic peptides of protein N of SARS-CoV Urbani [1]: 0.1
- Binding of serum 2 to linear peptide (PEPSCAN-ELISA) [1]: 0.4
- Binding of serum 2 to looped/cyclic peptides of protein N of SARS-CoV Urbani [1]: 0.4
- Binding of serum 6 to linear peptide (PEPSCAN-ELISA) [1]: 0.2
- Binding of serum 6 to looped/cyclic peptides of protein N of SARS-CoV Urbani [1]: 0.1
- Binding of serum 37 to linear peptide (PEPSCAN-ELISA) [1]: 0.8
- Binding of serum 37 to looped/cyclic peptides of protein N of SARS-CoV Urbani [1]: 0.5
- Binding of serum 62 to linear peptide (PEPSCAN-ELISA) [1]: 0.6
- Binding of serum 62 to looped/cyclic peptides of protein N of SARS-CoV Urbani [1]: 0.3
- Binding of serum London to linear peptide (PEPSCAN-ELISA) [1]: 0.9
- Binding of serum London to looped/cyclic peptides of protein N of SARS-CoV Urbani [1]: 0.3
- Binding of serum SARS-green to linear peptide (PEPSCAN-ELISA) [1]: 1.1
- Binding of serum SARS-green to looped/cyclic peptides of protein N of SARS-CoV Urbani [1]: 0.6
- Binding of serum SARS-yellow to linear peptide (PEPSCAN-ELISA) [1]: 0.7
- Binding of serum SARS-yellow to looped/cyclic peptides of protein N of SARS-CoV Urbani [1]: 0.2
- Binding of Control Serum Blood-Bank to Looped peptides [2]: 0.5
- Binding of Control serum Blood-bank to linear peptides [2]: 0.8
- Binding of Control serum LUMC to linear peptides [2]: 0.9
- Binding of Control serum LUMC to looped peptides [2]: 0.5
- Binding of a rabbit serum to linear peptides of protein N of SARS-CoV Urbani (Rabbit serum linear peptides) [3]: 0.2
- Binding of a rabbit serum to looped/cyclic peptides of protein N of SARS-CoV Urbani (Rabbit serum looped peptides) [3]: 0.2
- Binding of antibody 03-018 to linear peptides of the N protein of SARS-CoV Urbani [4]: 0.1
- Binding of antibody 03-018 to looped/cyclic peptides of the N protein of SARS-CoV Urbani [4]: 0.2

Sequence: KEELRFPRGQGVPIN
- Binding of serum 1a to linear peptides of protein N of SARS-CoV Urbani [1]: 0.2
- Binding of serum 1a to looped/cyclic peptides of protein N of SARS-CoV Urbani [1]: 0.4
- Binding of serum 1b to linear peptides of protein N of SARS-CoV Urbani [1]: 0.1
- Binding of serum 1b to looped/cyclic peptides of protein N of SARS-CoV Urbani [1]: 0.3
- Binding of serum 2 to linear peptides of protein N of SARS-CoV Urbani [1]: 0.3
- Binding of serum 2 to looped/cyclic peptides of protein N of SARS-CoV Urbani [1]: 0.5
- Binding of serum 6 to linear peptides of protein N of SARS-CoV Urbani [1]: 0.2
- Binding of serum 6 to looped/cyclic peptides of protein N of SARS-CoV Urbani [1]: 0.4
- Binding of serum 37 to linear peptides of protein N of SARS-CoV Urbani [1]: 0.7
- Binding of serum 37 to looped/cyclic peptides of protein N of SARS-CoV Urbani [1]: 0.7
- Binding of serum 62 to linear peptides of protein N of SARS-CoV Urbani [1]: 0.6
- Binding of serum 62 to looped/cyclic peptides of protein N of SARS-CoV Urbani [1]: 0.5
- Binding of serum London to linear peptides of protein N of SARS-CoV Urbani [1]: 0.5
- Binding of serum London to looped/cyclic peptides of protein N of SARS-CoV Urbani [1]: 0.7
- Binding of serum SARS-green to linear peptides of protein N of SARS-CoV Urbani [1]: 0.5
- Binding of serum SARS-green to looped/cyclic peptides of protein N of SARS-CoV Urbani [1]: 0.4
- Binding of serum SARS-yellow to linear peptides of protein N of SARS-CoV Urbani [1]: 0.5
- Binding of serum SARS-yellow to looped/cyclic peptides of protein N of SARS-CoV Urbani [1]: 0.6
- Binding of Control Serum Blood-Bank to Looped peptides [2]: 0.7
- Binding of Control serum Blood-bank to linear peptides [2]: 0.8
- Binding of Control serum LUMC to linear peptides [2]: 0.7
- Binding of Control serum LUMC to looped peptides [2]: 0.7
- Binding of a rabbit serum to linear peptides of protein N of SARS-CoV Urbani (Rabbit serum linear peptides) [3]: 0.1
- Binding of a rabbit serum to looped/cyclic peptides of protein N of SARS-CoV Urbani (Rabbit serum looped peptides) [3]: 0.6
- Binding of antibody 03-018 to linear peptides of the N protein of SARS-CoV Urbani [4]: 0.1
- Binding of antibody 03-018 to looped/cyclic peptides of the N protein of SARS-CoV Urbani [4]: 0.3

— US20070128217A1 (priority 2003, published 2007)
